Test results reported in ChEMBL document CHEMBL5365420, “Kinetics, Thermodynamics, and Structural Effects of Quinoline-2-Carboxylates, Zinc-Binding Inhibitors of New Delhi Metallo-β-lactamase-1 Re-sensitizing Multidrug-Resistant Bacteria for Carbapenems” (J Med Chem, 2023).

Legend:
Escherichia coli [1] = assay: Antibacterial activity against clinical isolate Escherichia coli K12 J53-ST10 696/17 expressing blaNDM-1 co-expressing blaCMY-4 assessed as meropenem MIC at 72.88 uM measured after 20 hrs by broth microdilution assay (reference value: 24 mg/L); assay type: functional
Klebsiella pneumoniae [2] = assay: Antibacterial activity against clinical isolate Klebsiella pneumoniae 50/20 expressing blaNDM-5 co-expressing blaTEM-1 and blaSHV-1 assessed as meropenem MIC at 72.88 uM measured after 20 hrs by broth microdilution assay (reference value: 24 mg/L); assay type: functional
[3] = target: 72 kDa type IV collagenase (Homo sapiens, UniProt P08253); assay: Binding affinity to human recombinant MMP-2 CD assessed as inhibition constant using OMNIMMP as substrate incubated for 30 mins by fluorescence based analysis
Klebsiella pneumoniae [4] = assay: Antibacterial activity against clinical isolate Klebsiella pneumoniae 50/20 expressing blaNDM-5 co-expressing blaTEM-1 and blaSHV-1 assessed as meropenem MIC at 36.44 uM measured after 20 hrs by broth microdilution assay (reference value: 12 mg/L); assay type: functional
Klebsiella pneumoniae [5] = assay: Antibacterial activity against clinical isolate Klebsiella pneumoniae 62/07 expressing blaVIM-19 co-expressing blaSHV-1/blaCTX-M-14 and blaCMY-4 assessed as meropenem MIC at 72.88 uM measured after 20 hrs by broth microdilution assay (reference value: 24 mg/L); assay type: functional
Klebsiella pneumoniae [6] = assay: Antibacterial activity against clinical isolate Klebsiella pneumoniae ST1493/10 expressing blaNDM-1 co-expressing blaCMY-2like/blaTEM-1/blaCTX-M-15/blaSHV-28/blaOXA-1 and blaOXA-9 assessed as meropenem MIC at 36.44 uM measured after 20 hrs by broth microdilution assay (reference value: 12 mg/L); assay type: functional
Escherichia coli [7] = assay: Antibacterial activity against clinical isolate Escherichia coli 371/12 expressing blaNDM-7 co-expressing blaCTX-M-15 and blaOXA-1 assessed as meropenem MIC at 72.88 uM measured after 20 hrs by broth microdilution assay (reference value: 24 mg/L); assay type: functional
[8] = target: Metallo-beta-lactamase type 2 (Bacteria) (UniProt C7C422)
Description: Binding affinity to C-terminal 6His-tagged full length truncated NDM-1 (unknown origin) expressed in Escherichia coli BL21-DE3 assessed as change in entropy by isothermal titration calorimetric analysis

[9] = target: Metallo-beta-lactamase type 2 (Bacteria) (UniProt C7C422); remark: listed apart in the source
Description: Binding affinity to C-terminal 6His-tagged full length truncated NDM-1 (unknown origin) expressed in Escherichia coli BL21-DE3 assessed as change in enthalpy in presence of zinc sulfate by isothermal titration calorimetric analysis

[10] = target: Metallo-beta-lactamase type 2 (Bacteria) (UniProt C7C422); remark: listed apart in the source
Description: Binding affinity to C-terminal 6His-tagged full length truncated NDM-1 (unknown origin) expressed in Escherichia coli BL21-DE3 assessed as change in Gibbs free energy by isothermal titration calorimetric analysis

Klebsiella pneumoniae [11] = assay: Antibacterial activity against clinical isolate Klebsiella pneumoniae 50/11 expressing blaNDM-1 co-expressing blaTEM-1/blaSHV-28/blaTEM-1/blaCTX-M-15 and blaOXA-1 assessed as meropenem MIC at 36.44 uM measured after 20 hrs by broth microdilution assay (reference value: 12 mg/L); assay type: functional
Acinetobacter baumannii = assay: Antibacterial activity against clinical isolate Acinetobacter baumannii IC 19/09 expressing blaNDM-1 co-expressing blaOXA-64 assessed as meropenem MIC at 36.44 uM measured after 20 hrs by broth microdilution assay (reference value: 12 mg/L); assay type: functional

Metallo-beta-lactamase type 2 (Bacteria), sequence (C7C422 whole entry): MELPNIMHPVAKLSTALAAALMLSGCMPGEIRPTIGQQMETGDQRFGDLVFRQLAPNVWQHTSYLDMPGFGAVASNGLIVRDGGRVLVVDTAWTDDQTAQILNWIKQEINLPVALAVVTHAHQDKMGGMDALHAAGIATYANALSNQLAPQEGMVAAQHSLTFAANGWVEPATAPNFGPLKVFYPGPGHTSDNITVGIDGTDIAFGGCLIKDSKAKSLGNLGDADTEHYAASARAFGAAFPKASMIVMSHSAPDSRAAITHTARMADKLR
72 kDa type IV collagenase, sequence (P08253 whole entry): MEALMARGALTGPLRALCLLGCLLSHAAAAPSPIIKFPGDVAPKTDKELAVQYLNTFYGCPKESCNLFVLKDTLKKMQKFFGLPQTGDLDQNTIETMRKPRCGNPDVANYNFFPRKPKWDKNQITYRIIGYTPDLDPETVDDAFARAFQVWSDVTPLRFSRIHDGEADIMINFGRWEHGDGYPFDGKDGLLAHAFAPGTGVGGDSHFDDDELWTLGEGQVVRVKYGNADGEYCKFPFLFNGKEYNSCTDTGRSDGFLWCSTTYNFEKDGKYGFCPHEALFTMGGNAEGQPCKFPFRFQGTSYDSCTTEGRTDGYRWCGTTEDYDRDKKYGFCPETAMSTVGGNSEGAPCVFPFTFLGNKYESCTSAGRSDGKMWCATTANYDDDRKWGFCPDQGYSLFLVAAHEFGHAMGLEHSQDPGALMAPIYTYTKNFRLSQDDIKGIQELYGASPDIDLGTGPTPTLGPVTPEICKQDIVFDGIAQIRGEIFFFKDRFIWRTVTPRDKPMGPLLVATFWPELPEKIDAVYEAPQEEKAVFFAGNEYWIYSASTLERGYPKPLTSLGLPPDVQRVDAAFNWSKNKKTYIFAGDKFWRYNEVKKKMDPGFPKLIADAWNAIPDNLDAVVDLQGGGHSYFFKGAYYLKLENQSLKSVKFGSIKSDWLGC

O=C(O)c1ccc2cccc(NS(=O)(=O)c3ccccn3)c2n1
MIC (Escherichia coli [1]): ≤ 0.125 µg/mL | MIC (Klebsiella pneumoniae [2]): ≤ 0.125 µg/mL | Ki [3]: 5.78 µM | MIC (Klebsiella pneumoniae [4]): 0.5 µg/mL | MIC (Klebsiella pneumoniae [5]): 0.25 µg/mL | MIC (Klebsiella pneumoniae [6]): 2 µg/mL | MIC (Escherichia coli [7]): ≤ 0.125 µg/mL | -TdeltaS [8]: -2.92 kcal/mol | deltaH [9]: -26.5 kcal/mol | deltaG [10]: -9.54 kcal/mol | MIC (Klebsiella pneumoniae [11]): ≤ 0.125 µg/mL | MIC (Acinetobacter baumannii): 4 µg/mL
